How the values were obtained:
Type in all cases: in vivo, rat
[1] = tested on: rats subjected to Li-pilo induced SE; test: Mortality induced by lithium-pilocarpine status epilepticus (Example 1)
Experimental: (§1) Male Wistar rats weighing 225-250 g, provided by Janvier Breeding Center (Le Genest-St-lste, France) were housed under controlled standard conditions (light/dark cycle, 7.00 a.m.-7.00 p.m. lights on), with food and water available ad libitum. All animal experimentation was performed in accordance with the rules of the European Communities Council Directive of Nov. 24, 1986 (86/609/EEC), and the French Department of Agriculture (License No 67-97). For electrode implantation, rats were anesthetized by an i.p. injection of 2.5 mg/kg diazepam (DZP, Valium, Roche, France) and […] ketamine chlorhydrate (Imalgene 1000, Rhone Merrieux, France). Four single-contact recording electrodes were placed on the skull, over the parietal cortex, two on each side.
(§2) All rats received lithium chloride (3 meq/kg, i.p., Sigma, St Louis, Mo., U.S.A.); about 20 h later, animals were placed into plexiglas boxes, in order to record baseline cortical EEG. Methylscopolamine bromide (1 mg/kg, s.c., Sigma) was administered to limit the peripheral effects of the convulsant. SE was induced by injecting pilocarpine hydrochloride (25 mg/kg, s.c., Sigma) 30 min after methyl-scopolamine. The bilateral EEG cortical activity was recorded during the whole duration of SE and behavioral changes were noted.
(§3) The effects of increasing doses of the test compound were studied on 3 groups of rats. The animals of the first group received 10 mg/kg of the test compound, i.p., 1 h after the onset of SE (pilo-TC10) while the animals of groups 2 and 3 received 30 and 60 mg/kg of the test compound (pilo-TC30 and pilo-TC60), respectively.
(§4) Another group was injected with 2 mg/kg diazepam (DZP, i.m.) at 1 h after the onset of SE. This is a standard treatment to improve animals survival after SE (pilo-DZP). The control group received saline instead of pilocarpine and the test compound (saline-saline). The pilo-test compound rats surviving SE were then injected about 10 h after the first test compound injection with a second i.p. injection of the same dose of the test compound and were maintained under a twice daily treatment with the test compound for 6 additional days. Pilo-DZP received a second injection of 1 mg/kg DZP on the day of SE at about 10 h after the first one. Thereafter, Pilo-DZP and saline-saline rats received twice daily an equivalent volume of saline.
The difference was statistically significant (p<0.01).

[2] = tested on: rats subjected to Li-pilo induced SE; test: Timm staining, mossy fiber sprouting in hippocampus (Example 1)
Experimental: At 2 months after the onset of spontaneous recurrent seizures, mossy fiber sprouting was examined on rats in the chronic period exposed to the test compound or DZP and in 3 saline-saline rats. Animals were deeply anaesthetized and perfused transcardially with saline followed by 100 ml of 1.15% (w/v) Na2S in 0.1 M phosphate buffer, and 100 ml of 4% (v/v) formaldehyde in 0.1 M phosphate buffer. Brains were removed from skull, post-fixed in 4% formaldehyde during 3-5 h and 40 μm sections were cut on a sliding vibratome and mounted on gelatin-coated slides.
The following day, sections were developed in the dark in a 26° C. solution of 50% (w/v) arabic gum (160 ml), sodium citrate buffer (30 ml), 5.7% (w/v) hydroquinone (80 ml) and 10% (w/v) silver nitrate (2.5 ml) during 40-45 min. The sections were then rinsed with tap water at 40° C. during at least 45 min, rinsed rapidly with distilled water and allowed to dry. They were dehydrated in ethanol and coverslipped.
Mossy fiber sprouting was evaluated according to criteria previously described in dorsal hippocampus (Cavazos et al., 1991, J Neurosci 11:2795-2803), which are follows: O— no granules between the tips and crest of the DG; 1—sparse granules in the supragranular region in a patchy distribution between the tips and crest of DG; 2—more numerous granules in a continuous distribution between the tips and crest of DG; 3—prominent granules in a continuous pattern between tips and crest, with occasional patches of confluent granules between tips and crest; 4—prominent granules that form a confluent dense laminar band between tips and crest and 5—confluent dense laminar band of granules that extends into the inner molecular layer.

[3] = tested on: rats subjected to Li-pilo induced SE; test: EEG patterns during lithium-pilocarpine SE (Example 1)
Experimental: as §1, §2, §3, §4
The effects of the test compound on the EEG and on the latency to occurrence of SRS were investigated by daily video recording of the animals for 10 h per day and the recording of the electrographic activity twice a week for 8 h.

Row | SMILES | degree of mortality during the first 48 h after SE ([1]; pilo-DZP, DZP 2 mg/kg i.m. 1 h after onset of SE, 5/22) [%] | mean Timm score, upper blade of the dentate gyrus ([2]; pilo-DZP, n=9, score scale 0-5) | EEG activity in the cortex and the hippocampus by 6-7 h of SE ([3]; DZP-treated rats (2 mg/kg i.m.)) | degree of mortality during the first 48 h after SE ([1]; pilo-TC10, TC 10 mg/kg i.p. 1 h after onset of SE, 6/23) [%] | degree of mortality during the first 48 h after SE ([1]; pilo-TC30, TC 30 mg/kg i.p. 1 h after onset of SE, 5/25) [%] | degree of mortality during the first 48 h after SE ([1]; pilo-TC60, TC 60 mg/kg i.p. 1 h after onset of SE, 1/23, p<0.01) [%] | mean Timm score, upper blade of the dentate gyrus ([2]; pilo-TC10, n=7, p=0.032 vs pilo-DZP) | mean Timm score, upper blade of the dentate gyrus ([2]; pilo-TC30, n=10) | mean Timm score, upper blade of the dentate gyrus ([2]; pilo-TC60 subgroup with early SRS occurrence, n=6) | mean Timm score, upper blade of the dentate gyrus ([2]; pilo-TC60 subgroup with late occurrence or absence of SRS, n=5, p=0.016 vs pilo-DZP) | mean Timm score, upper blade of the dentate gyrus ([2]; whole group of pilo-TC60 rats, n=11) | EEG activity in the cortex and the hippocampus by 6-7 h of SE ([3]; TC10-treated rats (10 mg/kg i.p.)) | amplitude of the EEG by 6-7 h of SE, hippocampus ([3]; TC30 rats (30 mg/kg i.p.)) | amplitude of the EEG by 6-7 h of SE, hippocampus and cortex (both structures) ([3]; TC60 treated rats (60 mg/kg i.p.))
1 | CN1C(=O)CN=C(c2ccccc2)c2cc(Cl)ccc21 [DZP, diazepam, reference compound] | 23 | 2.8±0.8 | spiking activity was still present | – | – | – | – | – | – | – | – | – | – | –
2 | NC(=O)OC[C@@H](O)c1ccccc1Cl [Formula 7] | – | – | – | 26 | 20 | 4 | 1.5±0.6 | 2.6±1.0 | 1.8±0.6 | 1.2±0.6 | 1.5±0.7 | spiking activity was still present | came back to baseline levels | came back to baseline levels
